Tests used:
[1] = tested on: K562 cells expressing HRAS^G12V; format: cell-based, human; conditions: pathway already saturated
BV173 cells = assay: Western blots of CRAF immunoprecipitates and lysates, BV173 cells; format: cell-based, human
[2] = tested on: SW620 (KRAS^G12V), Panc1 (KRAS^G12D) and H460 (KRAS^Q61H) cells; assay: Western blot for MEK and ERK activation in KRAS mutant cells; format: cell-based, human; conditions: imatinib 10μM, nilotinib 1μM, dasatinib 5μM
CML = conditions: first-line treatment of CML; ref Quintás-Cardama et al., 2009; cited from earlier work

Cc1ccc(NC(=O)c2ccc(CN3CCN(C)CC3)cc2)cc1Nc1nccc(-c2cccnc2)n1 [imatinib]
MEK and ERK phosphorylation [1]: did not increase MEK and ERK phosphorylation
BCR-ABL and CRKL phosphorylation (BV173 cells): inhibited BCR-ABL and CRKL phosphorylation
MEK and ERK activity (BV173 cells): inhibited MEK and ERK
MEK and ERK activation [2]: activated MEK and ERK
patients who do not achieve complete responses (CML): 20-30%

— article PMC3951999 (Cancer cell, 2011)
